The text below walks through data of ChEMBL document CHEMBL3244204, “Acetylenics. 2. Synthesis and pharmacology of certain N,N-diakyl-3-phenylpropyn-2-amines. Some analogues with tryptamine-like behavioral effects in mice” (J Med Chem, 1978).

The source made the active and inactive calls. The calls are words filed in the database; no cut-off is given here.

What is called inhibition is the drop in the measured response relative to a control, in per cent.

For experiment [1], the species on record is Rattus norvegicus. Description: Inhibition of rat liver MAO assessed as release of 4-hydroxyquinoline from kynuramine at 3.6 x 10^-6 M preincubated for 10 mins.
The species named for experiment [2] is Rattus norvegicus. Description: Inhibition of rat liver MAO assessed as release of 4-hydroxyquinoline from kynuramine at 3.6 x 10^-6 M.
Experiment [3] has as its system Mus musculus. Description: Induction of gross behavioral activity in Swiss albino mouse assessed as increase in clonic seizure of hind quarters at 25 mg/kg, ip in presence of 5HT antagonist BOL. The format is functional, organism-based. Further details: dose 25 mg/kg.
The subject of experiment [4] is Mus musculus. Nature of the experiment: Induction of gross behavioral activity in 3 mg/kg of cyprohepatidine treated Swiss albino mouse assessed as increase in clonic seizure of hind quarters at 25 mg/kg, ip treated 40 mins after cyprohepatidine administration. The format is functional, organism-based.
In experiment [5] the test system is Mus musculus. Nature of the experiment: Induction of gross behavioral activity in Swiss albino mouse assessed as increase in clonic seizure of hind quarters at 25 mg/kg, ip in presence of 2 to 25 mg/kg of methysergide. The format is functional, organism-based.
Experiment [6] concerns Mus musculus. Description: Induction of gross behavioral activity in Swiss albino mouse assessed as decrease in motor activity with some clonic seizure at 50 mg/kg, ip after 25 to 30 mins. The experiment is classed as functional, organism-based. More on the design: dose 50 mg/kg.
The subject of experiment [7] is Mus musculus. Description: Induction of gross behavioral activity in ip dosed Swiss albino mouse assessed as minimum effective dose. The format is functional. The following applies: read-out: MED.
Experiment [8] relates to Mus musculus. Nature of the experiment: Induction of gross behavioral activity in Swiss albino mouse assessed as increase in clonic seizure of hind quarters at 25 mg/kg, ip in presence of 3 mg/kg of cyprohepatidine. The experiment is classed as functional, organism-based.
The test system of experiment [9] is Mus musculus. Nature of the experiment: Induction of gross behavioral activity in Swiss albino mouse assessed as clonic seizure of hind quarters at 50 mg/kg, ip after 10 to 15 mins. The format is functional, organism-based. More on the design: dose 50 mg/kg.

For `C#CCN(C)Cc1ccccc1`, the inhibition in experiment [1] turned out to be 78%; in [2] it was 45%.
For `NCCc1c[nH]c2ccccc12` [TRYPTAMINE], the result in experiment [3] and in experiment [4] was inactive. In addition, the result in [5], in [6], in experiment [8] and in experiment [9] was Active. Besides, the minimal effective dose in experiment [7] is under 25 mg/kg.
